These results are taken from patent publication US6667322B2, “Antidepressant chroman and chromene derivatives of 3-(1,2,3,6-tetrahydro-4-pyridinyl)-1H-indole” (Wyeth, priority 2001, dated 2003).

The target in series [1] is T1, serotonin transporter (Rattus norvegicus, UniProt P31652).
T1 construct: displace ^3H-paroxetine from male rat frontal cortical membranes; from tissue; host or cells: male rat frontal cortex membranes
In words: 3H-paroxetine displacement from rat frontal cortical membranes (serotonin transporter affinity). In kind it is binding.

For series [2], the target named is T2, human 5-HT1A receptors (Homo sapiens, UniProt P08908).
T2 construct: expressed in transfected cells; host or cells: CHO cells
T2 sequence (P08908 1-422): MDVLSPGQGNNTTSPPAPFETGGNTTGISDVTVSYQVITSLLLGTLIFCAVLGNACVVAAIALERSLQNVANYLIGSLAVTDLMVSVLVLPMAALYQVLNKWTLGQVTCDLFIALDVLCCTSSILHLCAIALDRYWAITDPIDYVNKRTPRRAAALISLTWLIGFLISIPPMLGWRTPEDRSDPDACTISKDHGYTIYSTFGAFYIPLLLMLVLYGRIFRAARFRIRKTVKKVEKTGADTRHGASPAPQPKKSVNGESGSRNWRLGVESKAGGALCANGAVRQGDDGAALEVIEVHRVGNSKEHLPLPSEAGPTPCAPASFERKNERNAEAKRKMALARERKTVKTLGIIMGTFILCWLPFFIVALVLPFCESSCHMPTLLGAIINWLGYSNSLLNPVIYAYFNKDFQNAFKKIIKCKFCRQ
The experiment in a line: [3H] 8-OHDPAT displacement from 5-HT1A receptor in transfected CHO cells. In kind it is binding. The text has this:
High affinity for the serotonin 5-HT1A receptor was established by testing the claimed compound's ability to displace [^3H] 8-OHDPAT (dipropylamino-tetralin) from the 5-HT1A serotonin receptor following a modification of the procedure of Hall et al., J. Neurochem. 44, 1685 (1985) which utilizes CHO cells stably transfected with human 5-HT1A receptors.

Series [3] concerns the target T3, cloned human 5-HT1A receptors (Homo sapiens, UniProt P08908).
T3 construct: expressed in transfected cells
T3 sequence (P08908 1-422): T2 sequence (P08908 1-422)
In words: 35S-GTPγS binding assay, agonist activity at 5-HT1A receptors. The note with it: for Emax: read-out: 5-HT1A Function (Emax); for pEC50: 35S-GTPγS binding to membranes containing cloned human 5-HT1A receptors, read-out: 5-HT1A Function EC50. In kind it is biochemical. As to the method: Agonist activity at 5-HT1A receptors was established by using a ^35S-GTPγbinding assay similar to that used by Lazareno and Birdsall (Br. J. Pharmacol. 109: 1120, 1993), in which the test compound's ability to affect the binding of ^35S-GTPγS to membranes containing cloned human 5-HT1A receptors was determined. Agonists produce an increase in binding whereas antagonists produce no increase but rather reverse the effects of the standard agonist 8-OHDPAT. The test compound's maximum stimulatory effect is represented as the Emax, while its potency is defined by the EC50.

Setting [4] is: displacement of 3H-paroxetine, male rat frontal cortical membranes, read-out: 5-HT Transporter Affinity KI.
Setting [5] is: displacement of [3H] 8-OHDPAT, CHO cells stably transfected with human 5-HT1A receptors, read-out: 5-HT1A Receptor Affinity KI.

pEC50, pKi: −log10 of the molar value. Structures can show the parent of a compound that is named as a salt. Where two headings read alike, the source gives them in different places.

T1 sequence (P31652 whole entry): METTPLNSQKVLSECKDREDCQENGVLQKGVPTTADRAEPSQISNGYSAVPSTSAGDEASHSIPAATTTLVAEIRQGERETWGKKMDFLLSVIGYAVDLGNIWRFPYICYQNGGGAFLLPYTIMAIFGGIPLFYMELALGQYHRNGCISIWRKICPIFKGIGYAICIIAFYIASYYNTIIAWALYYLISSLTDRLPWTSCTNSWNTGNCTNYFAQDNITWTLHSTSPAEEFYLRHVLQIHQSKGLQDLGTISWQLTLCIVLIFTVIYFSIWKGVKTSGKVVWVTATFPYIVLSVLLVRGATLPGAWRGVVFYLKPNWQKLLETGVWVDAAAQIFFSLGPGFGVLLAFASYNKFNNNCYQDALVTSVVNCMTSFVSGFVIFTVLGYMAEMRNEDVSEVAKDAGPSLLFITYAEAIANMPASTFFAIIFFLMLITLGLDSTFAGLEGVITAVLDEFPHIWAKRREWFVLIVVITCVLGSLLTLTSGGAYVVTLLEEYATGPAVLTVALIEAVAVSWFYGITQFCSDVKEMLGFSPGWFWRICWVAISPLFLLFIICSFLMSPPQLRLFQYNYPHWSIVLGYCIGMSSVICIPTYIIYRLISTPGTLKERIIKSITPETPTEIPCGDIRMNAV

On to `Fc1ccc2[nH]c(CC3CCN(CC4CCc5ccccc5O4)CC3)cc2c1` (stereo not shown) (as salt: oxalate) (hydrate or solvate) [Example 1, 2-{[1-(3,4-Dihydro-2H-chromen-2-ylmethyl)-4-piperidinyl]methyl}-5-fluoro-1H-indole], for which the melting point (usually the temperature, or range, at which the solid turns liquid) is 187 to 190 °C.
`Fc1ccc2[nH]c(CC3CCN(CC4CCc5ccccc5O4)CC3)cc2c1` (stereo not shown) [Example 1, 2-{[1-(3,4-Dihydro-2H-chromen-2-ylmethyl)-4-piperidinyl]methyl}-5-fluoro-1H-indole]: the pKi (in general, the negative decadic logarithm of the Ki, by convention in mol/L) in series [1] (setting [4]) was 9.89; in series [2] (setting [5]), 6.58.
With `C1=C(c2c[nH]c3ccccc23)CCN(CC2CCc3ccccc3O2)C1` (stereo not shown) [Example 2, 3-[1-(3,4-Dihydro-2H-chromen-2-ylmethyl)-1,2,3,6-tetrahydro-4-pyridinyl]-1H-indole], the melting point is 171 to 173 °C. In series [1], the pKi is 8.93. The Emax – broadly, the maximal effect, on the per cent scale that the assay sets – in series [3] amounted to 50%. In series [2] (setting [5]), the pKi is 6.55.
With `Fc1ccc2[nH]cc(C3=CCN(CC4CCc5ccccc5O4)CC3)c2c1` (stereo not shown) [Example 3, 3-[1-(3,4-Dihydro-2H-chromen-2-ylmethyl)-1,2,3,6-tetrahydro-4-pyridinyl]-5-fluoro-1H-indole], the melting point was in the range of 172 to 175 °C. For the same compound, the pKi in series [1] is 8.32. In series [3], the negative-log EC50 (pEC50) (usually the negative decadic logarithm of the EC50, by convention in mol/L) was 6.40 and the Emax stood at 83%. The pKi in series [2] (setting [5]) was 6.52.
On to `COc1cccc2c1OC(CN1CC=C(c3c[nH]c4ccc(F)cc34)CC1)CC2` (stereo not shown) [Example 4, 5-Fluoro-3-(1-{[8-methoxy-3,4-dihydro-2H-chromen-2-yl]methyl}-1,2,3,6-tetrahydro-4-pyridinyl)-1H-indole], for which the melting point was 177 to 180 °C (dec.). For the same compound, the pKi in series [1] was 8.02. In series [3], the pEC50 was 6.55 and the Emax amounted to 92%. For the same compound, in series [2], the pKi was 7.46.
For the compound `COc1cccc2c1OC(CN1CC=C(c3c[nH]c4ccccc34)CC1)CC2` (stereo not shown) [Example 5, (3-(1-{8-Methoxy-3,4-dihydro-2H-chromen-2-yl]methyl}-1,2,3,6-tetrahydro-4-pyridinyl)-1H-indole], the pKi in series [1] (setting [4]) is 8.00; in series [2] (setting [5]) it was 7.41. Further, the pEC50 in series [3] was 6.72. The “5-HT1A Function (Emax)” value in series [3] (maximum stimulatory effect, 35S-GTPγS binding, cloned human 5-HT1A receptors, value in parentheses) was 79.0.
As to `Fc1ccc2c(C3=CCN(CC4CCc5ccccc5O4)CC3)c[nH]c2c1` (stereo not shown) [Example 6, 3-[1-(3,4-Dihydro-2H-chromen-2-ylmethyl)-1 2,3,6-tetrahydro-4-pyridinyl]-6-fluoro-1H-indole], the melting point was 160 to 161 °C. Further, the pKi in series [1] was 9.47. In series [3], the pEC50 was 5.61 and the Emax was found to be 100%.
Consider `COc1cccc2c1OC(CN1CC=C(c3c[nH]c4cc(F)ccc34)CC1)CC2` (stereo not shown) [Example 7, 6-Fluoro-3-(1-{[8-methoxy-3,4-dihydro-2H-chromen-2-yl]methyl}-1,2,3,6-tetrahydro-4-pyridinyl)-1H-indole], for which the melting point is > 170 °C (dec.). The pKi in series [1] is 8.07. Also, in series [3], the pEC50 was 6.07 and the Emax came out at 64%. Besides, in series [2], the pKi was 7.35.
For `COc1cccc2c1OC(CN1CC=C(c3c[nH]c4ccc(F)cc34)CC1)C=C2` (stereo not shown) [Example 8, 5-Fluoro-3-(1-{[8-methoxy-2H-chromen-2-yl]methyl}-1,2,3,6-tetrahydro-4-pyridinyl)-1H-indole], the melting point is 189 to 191 °C (dec.). The compound also showed a pKi in series [1] of 7.70. For the same compound, in series [3], the pEC50 is 5.77 and the Emax amounted to 60%. For the same compound, the pKi in series [2] (setting [5]) was 6.85.
Turning to `COc1cccc2c1OC(CN1CC=C(c3c[nH]c4ccccc34)CC1)C=C2` (stereo not shown) [Example 9, 3-(1-{[8-Methoxy-2H-chromen-2-yl]methyl}-1,2,3,6-tetrahydro-4-pyridinyl)-1H-indole], the melting point is 198 to 200 °C (dec.). The compound further gave a pKi in series [1] of 8.02. Further, in series [3], the pEC50 was 6.68 and the Emax is 67%. Also, the pKi in series [2] was 7.02.
